Like-named read-outs stand apart in the source and are kept apart here.
Experiments:
[1] = test system: HeLa (cervix adenoma cancer cell); assay: WST-1 cytotoxicity, HeLa; format: cell-based, human
Description: (§1) Cancer and normal cell lines were purchased from ATCC and stored in liquid nitrogen. HT-29 (colon adenoma cancer), HeLa (cervix adenoma cancer cell), MDA-MB-231 (breast adenoma cancer cell), HEK-293 (embryonic kidney epithelial cell) and PNT-1A (normal prostate cells) cell lines were incubated in DMEM: F-12 and RPMI-1640, including 10% foetal bovine serum (FBS), 100 µg/mL streptomycin/100 IU/mL penicillin, at 37 °C in an incubator containing 5% CO2, 95% air in a humid atmosphere.
(§2) The cytotoxic effects of the substances were evaluated with WST-1 kits (Roche, Germany) in accordance with the manufacturer’s protocols. The cells were planted in 96-well plates (10^4 cells in each well). After incubation for 24 h, the media were discarded and the substances and 5-Fu as the control drug, at doses of 0, 2.5, 5, 10, 25, 50, 100 and 200 µM, were incubated for 24, 48 and 72 h. WST-1 reactive of 10 µL was added to all wells. Following 4-h incubation, the measurements were taken on a plate reader (Spectramax M5) at wavelengths of 450 and 630 nm. Graphs were then created and the IC50 value of each substance was calculated.

[2] = test system: HEK-293 (embryonic kidney epithelial cell); assay: WST-1 cytotoxicity, HEK-293; format: cell-based; conditions: normal cell
Description: as §1, §2

hCA IX = biological target: hCA IX; design: method as in PMID 25913118, PMID 26803577; conditions: cited from earlier work
[3] = test system: MDA-MB-231 (breast adenoma cancer cell); assay: WST-1 cytotoxicity, MDA-MB-231; format: cell-based, human
Description: as §1, §2

[4] = test system: HT-29 (colon adenoma cancer); assay: WST-1 cytotoxicity, HT-29; format: cell-based, human
Description: as §1, §2

[5] = test system: PNT-1A (normal prostate cells); assay: WST-1 cytotoxicity, PNT-1A; format: cell-based; conditions: normal cell
Description: as §1, §2

hCA XII = biological target: hCA XII; design: method as in PMID 25913118, PMID 26803577; conditions: cited from earlier work
[6] = WST-1, 24 h, mean of three experiments, read-out: IC50 HeLa 24 h
[7] = WST-1, 48 h, read-out: IC50 HeLa 48 h
[8] = WST-1, 24 h, read-out: IC50 HEK-293 24 h
[9] = WST-1, 72 h, read-out: IC50 HEK-293 72 h
[10] = WST-1, 48 h, read-out: IC50 MDA-MB-231 48 h
[11] = WST-1, 72 h, read-out: IC50 MDA-MB-231 72 h
[12] = WST-1, 24 h, read-out: IC50 HT-29 24 h
[13] = WST-1, 48 h, read-out: IC50 HT-29 48 h
[14] = WST-1, 72 h, read-out: IC50 HT-29 72 h
[15] = WST-1, 72 h, read-out: IC50 HeLa 72 h
[16] = WST-1, 48 h, read-out: IC50 HEK-293 48 h
[17] = WST-1, 24 h, read-out: IC50 PNT-1A 24 h
[18] = WST-1, 48 h, read-out: IC50 PNT-1A 48 h
[19] = WST-1, 72 h, read-out: IC50 PNT-1A 72 h

| SMILES | IC50 [1, 6] [µM] | IC50 [1, 7] [µM] | IC50 [2, 8] [µM] | IC50 [2, 9] [µM] | Ki (hCA IX) [µM] | IC50 [3, 10] [µM] | IC50 [3, 11] [µM] | IC50 [4, 12] [µM] | IC50 [4, 13] [µM] | IC50 [4, 14] [µM] | IC50 [1, 15] [µM] | IC50 ([3]; WST-1, 24 h, read-out: IC50 MDA-MB-231 24 h) [µM] | IC50 [2, 16] [µM] | IC50 [5, 17] [µM] | IC50 [5, 18] [µM] | IC50 [5, 19] [µM] | Ki (hCA XII) [µM] |
| --- | --- | --- | --- | --- | --- | --- | --- | --- | --- | --- | --- | --- | --- | --- | --- | --- | --- |
| Cc1cccc(C=NCCc2ccc(S(N)(=O)=O)cc2)c1O [Compound 2] | 27.1 ± 1.3 | 49.6 ± 0.8 | 114 ± 3.44 | 75.2 ± 5.6 | 0.295 |  |  |  |  |  |  |  |  |  |  |  |  |
| Cc1cccc(C=Nc2ccc(S(N)(=O)=O)cc2)c1O [Compound 3] | 36.3 ± 0.2 | 29.8 ± 2.3 | 196 ± 14.3 | 37.9 ± 3.6 | 0.465 | 80.6 ± 12.4 | 96.7 ± 33.4 |  |  |  |  |  |  |  |  |  |  |
| Cc1ccc(C=NCCc2ccc(S(N)(=O)=O)cc2)cc1 [Compound 4] |  |  |  | 96.2 ± 12.2 | 0.123 |  | 178 ± 11.2 | 33 ± 2.3 | 23.7 ± 2.2 | 119 ± 23.2 |  |  |  |  |  |  |  |
| O=c1[nH]cc(F)c(=O)[nH]1 [Compound 5-FU, reference compound] | 37.8 ± 4.3 | 31.2 ± 2.3 | 44.6 ± 7.2 | 14.5 ± 3.2 |  | 37.9 ± 12.3 | 21 ± 4.3 | 47.3 ± 1.2 | 23.4 ± 2.1 | 19.3 ± 1.2 | 14.7 ± 0.6 | 42.6 ± 2.56 | 19.8 ± 2.3 | 23.1 ± 4.55 | 21.2 ± 2.2 | 17.5 ± 7.6 |  |
| Cc1ccc(C=Nc2ccc(S(N)(=O)=O)cc2)cc1 [Compound 5] |  | 182 ± 12.2 |  | 170 ± 11.2 | 0.0237 | 74.7 ± 12.4 |  |  |  |  |  |  |  |  |  |  | 0.0099 |
| COc1ccc(C=Nc2ccc(S(N)(=O)=O)cc2)cc1 [Compound 6] |  | 198 ± 14.3 |  | 100 ± 22.2 | 0.883 |  |  |  |  | 187 ± 23.4 | 123 ± 11.1 |  |  | 154 ± 16.5 | 120 ± 11.2 | 76.4 ± 13.3 | 0.0112 |
| COc1ccc(C=NCCc2ccc(S(N)(=O)=O)cc2)cc1 [Compound 7] |  |  | 120 ± 13.8 | 85.4 ± 11.2 | 0.231 | 123 ± 12.3 | 98.2 ± 11.2 |  |  |  |  |  | 98.3 ± 11.2 |  | 190 ± 8.6 | 130 ± 32.2 |  |

Reference: article PMC6052416, “Selective inhibition of carbonic anhydrase-IX by sulphonamide derivatives induces pH and reactive oxygen species-mediated apoptosis in cervical cancer HeLa cells” (Journal of Enzyme Inhibition and Medicinal Chemistry, 2018)
